Measurements: patent US11629138B2, “Microbiocidal picolinamide derivatives” (Syngenta Participations AG, priority 2017, dated 2023)

Key:
[1] = tested on: Glomerella lagenarium (Colletotrichum lagenarium); test: Glomerella lagenarium (Colletotrichum lagenarium) / liquid culture (anthracnose); type: cell-based; settings: Colletotrichum orbiculare; 200 ppm in the formulation; PDB broth, 24° C., photometric, 3 to 4 days after application; vs untreated control; read-out: disease control (inhibition of growth)
Protocol: (§1) Glomerella lagenarium (Colletotrichum lagenarium)/Liquid Culture (Anthracnose) Conidia of the fungus from cryogenic storage are directly mixed into nutrient broth (PDB potato dextrose broth). After placing a (DMSO) solution of test compound into a microtiter plate (96-well format), the nutrient broth containing the fungal spores is added. The test plates are incubated at 24° C. and the inhibition of growth is measured photometrically 3 to 4 days after application.

[2] = tested on: Magnaporthe grisea (Pyricularia oryzae); test: whole plant or invertebrate; type: in vivo; settings: foliar, read-out: disease control
[3] = tested on: Mycosphaerella arachidis (Cercospora arachidicola); test: Mycosphaerella arachidis (Cercospora arachidicola) / liquid culture (early leaf spot); type: cell-based; settings: 200 ppm in the formulation, PDB broth, 24° C., photometric, 4-5 days after application, vs untreated control, read-out: disease control (inhibition of growth)
Protocol: as §1, with “Mycosphaerella arachidis (Cercospora arachidicola)/Liquid” for “Glomerella lagenarium (Colletotrichum lagenarium)/Liquid”, “(Early Leaf Soot)” for “(Anthracnose)”, “determined” for “measured”, “4-5” for “3 to 4”

[4] = tested on: Mycosphaerella graminicola (Septoria tritici); test: Mycosphaerella graminicola (Septoria tritici) / liquid culture (Septoria blotch); type: cell-based; settings: Zymoseptoria tritici; 200 ppm in the formulation; PDB broth, 24° C., photometric, 4 to 5 days after application; vs untreated control; read-out: disease control (inhibition of growth)
Protocol: (§2) Mycosphaerella graminicola (Septoria tritici)/Liquid Culture (Septoria Blotch) Conidia of the fungus from cryogenic storage are directly mixed into nutrient broth (PDB potato dextrose broth). After placing a (DMSO) solution of test compound into a microtiter plate (96-well format), the nutrient broth containing the fungal spores is added. The test plates are incubated at 24° C. and the inhibition of growth is determined photometrically 4 to 5 days after application.

[5] = tested on: Phaeosphaeria nodorum (Setoria nodorum); test: Phaeosphaeria nodorum (Septoria nodorum) / wheat / leaf disc preventative (glume blotch); type: in vivo; settings: Parastagonospora nodorum, foliar, 200 ppm in the formulation, wheat leaf segments cv. Kanzler, 5-7 days after application, vs untreated control, read-out: disease control
Protocol: Phaeosphaeria nodorum (Setoria nodorum)/Wheat/Leaf Disc Preventative (Glume Blotch) Wheat leaf segments cv. Kanzler are placed on agar in a multiwell plate (24-well format) and sprayed with the formulated test compound diluted in water. The leaf disks are inoculated with a spore suspension of the fungus 2 days after application. The inoculated test leaf disks are incubated at 20° C. and 75% rh under a light regime of 12 h light/12 h darkness in a climate cabinet and the activity of a compound is assessed as percent disease control compared to untreated when an appropriate level of disease damage appears in untreated check leaf disks (5-7 days after application).

[6] = tested on: Puccinia recondita f. so. tritici; test: Puccinia recondita f. sp. tritici / wheat / leaf disc preventative (brown rust); type: in vivo; settings: foliar, 200 ppm in the formulation, wheat leaf segments cv. Kanzler, 7-9 days after application, vs untreated control, read-out: disease control
Protocol: Puccinia recondita f. so. tritici/Wheat/Leaf Disc Preventative (Brown Rust)
Wheat leaf segments cv. Kanzler are placed on agar in multiwell plates (24-well format) and sprayed with the formulated test compound diluted in water. The leaf disks are inoculated with a spore suspension of the fungus 1 day after application. The inoculated leaf segments are incubated at 19° C. and 75% rh under a light regime of 12 h light/12 h darkness in a climate cabinet and the activity of a compound is assessed as percent disease control compared to untreated when an appropriate level of disease damage appears in untreated check leaf segments (7-9 days after application).

[7] = tested on: Monographella nivalis (Microdochium nivale); test: Monographella nivalis (Microdochium nivale) / liquid culture (foot rot cereals); type: cell-based; settings: 200 ppm in the formulation, PDB broth, 24° C., photometric, 4-5 days after application, vs untreated control, read-out: disease control (inhibition of growth)
Protocol: as §2, with “Monographella nivalis (Microdochium nivale)/Liquid” for “Mycosphaerella graminicola (Septoria tritici)/Liquid”, “(Foot Rot Cereals)” for “(Septoria Blotch)”, “4-5” for “4 to 5”

COc1ccnc(C(=O)N[C@@H](C)C(=O)OC(C)C(C)n2ccc3c(Br)ccc(F)c32)c1OC(C)=O (stereo partly drawn) [I.ab.041, [2-(4-bromo-7-fluoro-indol-1-yl)-1-methyl-propyl] (2S)-2-[(3-acetoxy-4-methoxy-pyridine-2-carbonyl)amino]propanoate]
≥ 80%: inhibition at 200 ppm [1] | pest or weed control at 200 ppm [2] | inhibition at 200 ppm [3] | inhibition at 200 ppm [4] | pest or weed control at 200 ppm [5] | pest or weed control at 200 ppm [6]

COc1ccnc(C(=O)N[C@@H](C)C(=O)OC(C)C(C)c2ncc(Cl)cc2Cl)c1O (stereo partly drawn) [I.an.001, [2-(3,5-dichloro-2-pyridyl)-1-methyl-propyl] (2S)-2-[(3-hydroxy-4-methoxy-pyridine-2-carbonyl)amino] propanoate]
≥ 80%: inhibition at 200 ppm [1] | pest or weed control at 200 ppm [2] | inhibition at 200 ppm [3] | inhibition at 200 ppm [4] | pest or weed control at 200 ppm [5] | pest or weed control at 200 ppm [6]

COc1ccnc(C(=O)N[C@@H](C)C(=O)OC(C)C(C)c2ncc(Cl)cc2Cl)c1OCOC(=O)C(C)C (stereo partly drawn) [I.an.081, [2-[[(1S)-2-[2-(3,5-dichloro-2-pyridyl)-1-methyl-propoxy]-1-methyl-2-oxo-ethyl]carbamoyl]-4-methoxy-3-pyridyl]oxymethyl 2-methylpropanoate]
≥ 80%: pest or weed control at 200 ppm [2] | inhibition at 200 ppm [7] | inhibition at 200 ppm [3] | inhibition at 200 ppm [4] | pest or weed control at 200 ppm [5] | pest or weed control at 200 ppm [6]

COc1ccnc(C(=O)N[C@@H](C)C(=O)OC(C)C(C)c2ccc(Cl)s2)c1O (stereo partly drawn) [I.ar.001, [2-(5-chloro-2-thienyl)-1-methyl-propyl] (2S)-2-[(3-hydroxy-4-methoxy-pyridine-2-carbonyl)amino]propanoate]
≥ 80%: inhibition at 200 ppm [1] | pest or weed control at 200 ppm [2] | inhibition at 200 ppm [7] | inhibition at 200 ppm [3] | inhibition at 200 ppm [4] | pest or weed control at 200 ppm [6]

COc1ccnc(C(=O)N[C@@H](C)C(=O)OC(C)C(C)n2ccc3cccc(Br)c32)c1O (stereo partly drawn) [I.ba.001, [2-(7-bromoindol-1-yl)-1-methyl-propyl] (2S)-2-[(3-hydroxy-4-methoxy-pyridine-2-carbonyl)amino]propanoate]
≥ 80%: inhibition at 200 ppm [1] | pest or weed control at 200 ppm [2] | inhibition at 200 ppm [7] | inhibition at 200 ppm [3] | inhibition at 200 ppm [4] | pest or weed control at 200 ppm [5] | pest or weed control at 200 ppm [6]

COc1ccnc(C(=O)N[C@@H](C)C(=O)OC(C)C(C)n2ccc3c(Cl)ccc(Cl)c32)c1O (stereo partly drawn) [I.bb.001, [2-(4,7-dichloroindol-1-yl)-1-methyl-propyl] (2S)-2-[(3-hydroxy-4-methoxy-pyridine-2-carbonyl)amino] propanoate]
≥ 80%: inhibition at 200 ppm [1] | pest or weed control at 200 ppm [2] | inhibition at 200 ppm [7] | inhibition at 200 ppm [3] | inhibition at 200 ppm [4] | pest or weed control at 200 ppm [5] | pest or weed control at 200 ppm [6]

COc1ccnc(C(=O)N[C@@H](C)C(=O)OC(C)C(C)n2ccc3cc(Br)ccc32)c1O (stereo partly drawn) [I.bc.001, [2-(5-bromoindol-1-yl)-1-methyl-propyl] (2S)-2-[(3-hydroxy-4-methoxy-pyridine-2-carbonyl)amino]propanoate]
≥ 80%: inhibition at 200 ppm [1] | pest or weed control at 200 ppm [2] | inhibition at 200 ppm [7] | inhibition at 200 ppm [3] | inhibition at 200 ppm [4] | pest or weed control at 200 ppm [6]

COc1ccnc(C(=O)N[C@@H](C)C(=O)OC(C)C(C)n2ccc3c(F)ccc(Br)c32)c1O (stereo partly drawn) [I.bd.001, [2-(7-bromo-4-fluoro-indol-1-yl)-1-methyl-propyl] (2S)-2-[(3-hydroxy-4-methoxy-pyridine-2-carbonyl)amino]propanoate]
≥ 80%: inhibition at 200 ppm [1] | pest or weed control at 200 ppm [2] | inhibition at 200 ppm [7] | inhibition at 200 ppm [3] | inhibition at 200 ppm [4] | pest or weed control at 200 ppm [5] | pest or weed control at 200 ppm [6]
